Results as given in publication PMC4738285 (Scientific Reports, 2016).

Assays:
[1] = test system: C. perfringens iota toxin on Vero cells; type: cell-based, African green monkey
[2] = target: Hsp70; conditions: read-out: dissociation constant; cited from earlier work
[3] = test system: iota toxin receptor binding on Vero cells; type: cell-based, African green monkey; conditions: 4 °C, 30 min
[4] = test system: Ia of C. perfringens iota toxin; type: biochemical, Clostridium perfringens
[5] = test system: C. perfringens iota toxin on Vero cells; type: cell-based, African green monkey; remark: listed apart in the source
[6] = target: T1, Hsp70 (Homo sapiens, UniProt P0DMV8); assay: biochemical; set-up: made in house
[7] = target: T2, Hsc70 (Homo sapiens, UniProt P11142); assay: biochemical; type: biochemical; set-up: made in house
[8] = test system: HeLa cells; type: cell-based, human
[9] = test system: HeLa cells; type: cell-based, human; remark: listed apart in the source
[10] = test system: HT-29; assay: cells; type: cell-based; conditions: Homo sapiens, HT-29, 48 h, read-out: EC50 value
[11] = test system: HeLa; assay: cells; type: cell-based; conditions: Homo sapiens, 48 h, read-out: EC50 value
[12] = test system: HEK-293; assay: cells; type: cell-based; conditions: Homo sapiens, HEK293, 48 h, read-out: EC50 value
[13] = test system: HeLa cells; assay: cells; type: cell-based; conditions: Homo sapiens; for EC50: read-out: EC50 cell survival, clonogenic assay; for IC50: read-out: IC50 survival, clonogenic assay
[14] = test system: SH-SY5Y; assay: cells; type: cell-based; conditions: Homo sapiens, 48 h, read-out: EC50 value
[15] = test system: HeLa cells; conditions: human, 24 h
[16] = target: T1, Hsp70; type: binding; set-up: made in house; conditions: 500 nM Hsp70, 50 μM 1; five of six regions
[17] = target: T1, Hsp70; type: binding; set-up: made in house; conditions: HeLa cell lysate
[18] = test system: HeLa cells; type: cell-based, human; remark: listed apart in the source
[19] = target: T1, Hsp70; assay: biochemical
[20] = test system: HeLa cells; type: cell-based, human; remark: listed apart in the source
[21] = target: T1, Hsp70; conditions: ITC, 20 °C
[22] = target: T1, Hsp70; type: biochemical; set-up: made in house; conditions: concentrations up to 200 μM; 0.5 μM Hsp70, 1 mM ATP
[23] = target: T2, Hsc70; type: binding; set-up: endogenous in cells; host or cells: HeLa cell lysate; conditions: HeLa cell lysate

T1 sequence (P0DMV8 whole entry): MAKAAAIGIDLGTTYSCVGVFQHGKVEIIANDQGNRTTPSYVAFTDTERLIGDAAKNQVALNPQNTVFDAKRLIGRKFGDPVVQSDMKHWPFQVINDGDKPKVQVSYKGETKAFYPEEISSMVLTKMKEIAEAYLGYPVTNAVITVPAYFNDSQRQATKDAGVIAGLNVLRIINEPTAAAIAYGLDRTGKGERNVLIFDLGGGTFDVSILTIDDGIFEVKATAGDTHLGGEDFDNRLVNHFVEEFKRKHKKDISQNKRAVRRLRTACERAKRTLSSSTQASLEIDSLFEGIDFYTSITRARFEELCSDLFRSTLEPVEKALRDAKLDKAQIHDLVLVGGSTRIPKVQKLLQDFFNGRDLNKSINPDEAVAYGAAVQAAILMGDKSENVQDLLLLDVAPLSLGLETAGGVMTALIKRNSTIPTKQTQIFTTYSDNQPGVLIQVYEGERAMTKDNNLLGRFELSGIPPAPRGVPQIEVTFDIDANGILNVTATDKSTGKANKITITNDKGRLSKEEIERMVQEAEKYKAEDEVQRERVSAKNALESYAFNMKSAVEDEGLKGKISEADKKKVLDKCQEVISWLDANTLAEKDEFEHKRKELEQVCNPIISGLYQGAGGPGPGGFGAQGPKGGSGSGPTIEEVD
T2 sequence (P11142 whole entry): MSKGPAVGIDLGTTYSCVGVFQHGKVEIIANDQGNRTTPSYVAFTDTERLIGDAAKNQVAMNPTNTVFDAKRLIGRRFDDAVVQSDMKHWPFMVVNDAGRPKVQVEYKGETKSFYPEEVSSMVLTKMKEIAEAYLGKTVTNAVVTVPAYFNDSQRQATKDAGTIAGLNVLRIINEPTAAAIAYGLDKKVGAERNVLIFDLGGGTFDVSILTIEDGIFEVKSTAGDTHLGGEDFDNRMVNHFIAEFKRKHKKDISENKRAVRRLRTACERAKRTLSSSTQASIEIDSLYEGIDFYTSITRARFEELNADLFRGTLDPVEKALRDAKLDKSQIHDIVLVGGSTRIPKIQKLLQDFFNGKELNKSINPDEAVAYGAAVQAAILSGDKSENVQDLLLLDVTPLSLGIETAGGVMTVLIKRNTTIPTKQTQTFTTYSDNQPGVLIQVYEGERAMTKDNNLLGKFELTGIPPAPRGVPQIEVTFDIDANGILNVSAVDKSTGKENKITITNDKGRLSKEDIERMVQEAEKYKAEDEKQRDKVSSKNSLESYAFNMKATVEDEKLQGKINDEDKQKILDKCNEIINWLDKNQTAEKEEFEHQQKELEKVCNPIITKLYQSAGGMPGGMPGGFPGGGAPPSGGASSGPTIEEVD

N#Cc1ccc(COC[C@H]2O[C@@H](n3c(NCc4ccc(Cl)c(Cl)c4)nc4c(N)ncnc43)[C@H](O)[C@@H]2O)cc1 [VER-155008]
round cells after acidic pulse (translocation of Ia) [1]: significantly less round cells | Kd [2]: 300 nM | binding of iota toxin to the cells [3]: had no effect | enzyme activity of Ia [4]: had no effect | intoxication of the cells with iota toxin [5]: inhibitory effect

c1cc[n+]2cc3ccc(N4CCCC4)cc3cc2c1 [Compound 2]
IC50 [6]: 127 ± 7 µM | IC50 [7]: 34 ± 3 µM

F[B-](F)(F)F.[Na+] [NaBF4]
apoptosis of HeLa cells, salt with staurosporine [8]: do not affect

[Br-].[Na+] [NaBr]
apoptosis of HeLa cells, salt with staurosporine [8]: do not affect

C[C@@H]1C[C@H]2O[C@@H]2/C=C\C=C\C(=O)Cc2c(Cl)c(O)cc(O)c2C(=O)O1 [radicicol]
round cells after acidic pulse (translocation of Ia) [1]: significantly less round cells | binding of iota toxin to the cells [3]: had no effect | enzyme activity of Ia [4]: had no effect

CSc1ccc2c[n+]3ccccc3cc2c1 [Compound 3]
localization of Hsp70 at 37 °C [9]: did not alter | localization of Hsp70 at 42 °C [9]: did not alter | EC50 [10]: 115 ± 52.4 µM | IC50 [6]: 1050 ± 53 µM | EC50 [11]: 35.8 ± 12.4 µM | EC50 [12]: 22.6 ± 1.3 µM | IC50 [7]: 931 ± 47 µM | cleavage of procaspases 3 and 7 in combination with staurosporine [8]: did not result in significant procaspase cleavage | procaspase cleavage, compound alone [8]: did not result in significant procaspase cleavage | EC50 [13]: 13.1 µM | IC50 [13]: 13.1 µM | intoxication of Vero cells with iota toxin [5]: no comparable inhibitory effect | EC50 [14]: 70 ± 10.5 µM | compound remaining intact in HeLa cell lysate [15]: 90%

Nc1ccc2c[n+]3ccccc3cc2c1 [Compound 1]
cytoplasmic vacuolization after heat stress [9]: strong cytoplasmic vacuolization | localization of Hsp70 at 37 °C [9]: did not alter | localization of Hsp70 at 42 °C [9]: dramatic Hsp70 re-distribution into the whole nucleus | subcellular distribution of Hsp70 in thymidine- and nocodazole-treated cells [9]: did not change | EC50 [10]: 71.6 ± 34 µM | IC50 [6]: 45 ± 4 µM | EC50 [11]: 19.5 ± 2.5 µM | Hsp70 binding to p53-derived peptide regions in the presence of 1 [16]: abolished | Hsp70 bound to matrix-coupled 1 [17]: detection of Hsp70 | EC50 [12]: 29.1 ± 1.1 µM | accumulation in G2/M phase [18]: did not accumulate in the G2/M phase | cell cycle phase distribution [18]: did not result in changes | cells remaining in G2/M [18]: > 20% | IC50 [7]: 363 ± 20 µM | Inhibition of Hsc70 less efficient compared to Hsp70 ([7]; luciferase refolding): 8 fold | apoptosis induction by staurosporine [8]: enhanced apoptosis induction | cleavage of procaspases 3 and 7 in combination with staurosporine [8]: synergistic effect | procaspase cleavage, compound alone [8]: did not result in significant procaspase cleavage | Kd [19]: 5.6 ± 3.1 µM | EC50 [13]: 11.2 µM | IC50 [13]: 11.2 µM | toxin-induced cell-rounding [5]: significantly delayed | EC50 [14]: 58.1 ± 4.6 µM | amount of Hsp70 in HeLa cells [20]: did not influence | compound remaining intact in HeLa cell lysate [15]: 90% | stoichiometry N [21]: 1.1 | TΔSITC ([21]; pH 7.8): 8.3 kcal/mol | binding enthalpy ΔHITC ([21]; pH 7.8): 1.3 ± 0.3 kcal/mol | ΔGITC ([21]; pH 7.8): -7.0 kcal/mol | ATPase activity of Hsp70 [22]: remained unaffected | Hsc70 bound to matrix-coupled 1 [23]: no detectable amount of Hsc70
